Molecules are shown by their SMILES.

The target of one test is T1, FRAP1 (mTOR) kinase (Homo sapiens, UniProt P42345).
T1 construct: purchased Invitrogen PV4753
T1 sequence (P42345 1360-2549 limits assumed): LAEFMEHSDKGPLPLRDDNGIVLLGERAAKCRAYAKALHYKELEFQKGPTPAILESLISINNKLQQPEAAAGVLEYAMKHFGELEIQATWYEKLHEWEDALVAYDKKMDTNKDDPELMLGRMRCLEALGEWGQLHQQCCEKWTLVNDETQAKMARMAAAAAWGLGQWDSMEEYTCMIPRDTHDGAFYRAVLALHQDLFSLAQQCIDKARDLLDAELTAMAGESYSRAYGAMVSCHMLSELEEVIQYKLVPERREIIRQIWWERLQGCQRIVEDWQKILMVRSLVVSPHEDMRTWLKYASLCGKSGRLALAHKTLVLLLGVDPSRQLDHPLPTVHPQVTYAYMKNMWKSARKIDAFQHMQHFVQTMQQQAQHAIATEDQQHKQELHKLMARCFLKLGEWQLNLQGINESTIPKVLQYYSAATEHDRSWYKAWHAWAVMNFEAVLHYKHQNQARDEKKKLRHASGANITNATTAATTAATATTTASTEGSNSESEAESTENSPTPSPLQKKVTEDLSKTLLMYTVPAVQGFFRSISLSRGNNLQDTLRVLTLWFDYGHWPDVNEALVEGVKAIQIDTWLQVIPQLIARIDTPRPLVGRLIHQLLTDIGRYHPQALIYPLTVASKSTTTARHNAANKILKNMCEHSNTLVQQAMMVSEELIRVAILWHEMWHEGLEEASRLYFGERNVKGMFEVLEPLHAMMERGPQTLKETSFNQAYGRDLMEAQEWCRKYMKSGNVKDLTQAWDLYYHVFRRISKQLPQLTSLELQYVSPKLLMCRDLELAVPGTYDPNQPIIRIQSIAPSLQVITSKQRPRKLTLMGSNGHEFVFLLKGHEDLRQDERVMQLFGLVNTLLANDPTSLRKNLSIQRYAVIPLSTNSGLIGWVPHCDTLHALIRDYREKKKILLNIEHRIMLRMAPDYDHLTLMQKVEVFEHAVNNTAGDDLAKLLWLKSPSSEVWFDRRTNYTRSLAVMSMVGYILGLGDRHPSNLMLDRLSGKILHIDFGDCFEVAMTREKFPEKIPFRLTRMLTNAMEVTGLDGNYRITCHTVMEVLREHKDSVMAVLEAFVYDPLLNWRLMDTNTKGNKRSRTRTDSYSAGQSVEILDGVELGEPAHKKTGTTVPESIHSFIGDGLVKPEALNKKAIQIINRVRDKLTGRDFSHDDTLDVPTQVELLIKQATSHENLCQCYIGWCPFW
Description: Inhibition of mTOR-induced p-4E-BP1 phosphorylation (TR-FRET mTOR Activity Kit; Invitrogen). It counts as biochemical. Particulars: 400 nM GFP-4E-BP1 substrate, ~150 ng/mL mTOR, one hour at room temperature. An excerpt:
Inhibition of mTOR-Induced p-4E-BP1 Phosphorylation (TR-FRET mTOR Activity Kit; Invitrogen)
• GFP-4E-BP1 substrate; Invitrogen order no. PV4759 • Lanthascreen Tb-anti-p4E-BP1 (pThr46) Antibody Kit; Invitrogen order no. PV4758 • FRAP1 (mTOR) kinase; Invitrogen order no. […] Preparation of Reagents: Note: Thaw and keep mTOR, the substrate, ATP, and the antibody on ice prior to making working dilutions. Working dilutions of these components can be kept at room temperature for short periods of time the day of use. 1. Add 2 ml of 5× Assay Buffer to 8 ml water to prepare 10 ml of 1× Assay Buffer. Note: The concentration of 1× Assay Buffer is 50 mM HEPES pH 7.5, 0.01% Polysorbate 20, 1 mM EGTA, and 10 mM MnCl2. 2. Prepare Antibody/EDTA Solution by first adding 2.75 n1 of Tb-anti p4E-BP1 Antibody to 2397 n1 of LanthaScreen™ TR-FRET Dilution Buffer. Then, add 100 n1 of 0.5 M EDTA. 3. Prepare 4× Substrate/Enzyme Solution by first adding 72 n1 of GFP-4E-BP1 (22 nM) to 926 n1 of 1× Assay Buffer. Then, add 1.6 n1 of mTOR (0.45 mg/mL). 4. Prepare ATP Solution by adding 3.2 n1 of 10 mM ATP to 1997 n1 of 1× Assay Buffer. Serial Dilution of Inhibitors (16 Point Curve): Note: It is recommended that inhibitors be serially diluted in DMSO, then diluted to a 4× working concentration with 1× Assay Buffer. The below procedure describes dilution of compounds in a 96-well format prior to transfer to a 384-well format for kinase assays. This procedure calls for dilution of the compounds in 2 adjacent columns of a 96-well plate, which upon transfer to a single column of a 384-well plate with an 8-channel pipette will align the samples in order of concentration. 1. Dispense 40 n1 of DMSO to two adjacent columns of a 96 well plate per compound (e.g. columns 1 and 2). 2. Add 10 n1 of inhibitor stock (10 mM) to the first well of the first column (A1) and mix. 3. Remove 10 n1 from A1 and transfer to the adjacent well in the next column (B1) and mix. 4. Remove 10 n1 from B1 and transfer to the next well in the first column (B2) and mix. 5. Repeat this dilution pattern through well H1 and leave the last well (H2) as DMSO only. 6. Remove 4 n1 of diluted compounds and add to 96 n1 of 1× Assay Buffer in a 96-well plate making 4× compound dilutions. Kinase Reaction: 1. Add 2.5 μl of 4× compound dilutions from the first column of the 96-well plate to every other well of column 1 of a 384-well plate with an 8-channel pipette. Repeat for columns 2 and 3. 2. Add 2.5 n1 of 4× compound dilutions from the second column of the 96-well plate to the empty wells of column 1 of the 384-well plate with an 8-channel pipette. Repeat for columns 2 and 3. Note: This procedure aligns the compound dilutions in order of concentration. 3. Add 2.5 n1 of 4× Enzyme/Substrate Solution to all columns 1-6. 4. Preincubate for 30 min. at RT (shaker). 5. Add 5 n1 of ATP Solution to all wells to start reactions. 6. Shake the assay plate on a plate shaker for 30 seconds. 7. Incubate the assay plate for one hour at room temperature (20-25° C.). Stop Step and Fluorescence Detection: 1. Add 10 n1 of Antibody/EDTA Solution to each well in columns 1-9. 2. Shake the assay plate on a plate shaker for 30 seconds. 3. Incubate the assay plate for one hour at room temperature (20-25° C.). 4. Measure the GFP (FRET) and terbium (reference) emission signals on a fluorescence plate reader (e.g. Perkin Elmer Envision). Data Analysis: 1. Calculate the emission ratio for each sample by dividing the GFP (FRET) signal by the terbium (reference) signal. 2. Plot the concentration of each compound versus the emission ratio. Determine the concentration of compound required to reach 50% of the maximum signal (IC50). Determination of IC50 values can be obtained by curve fitting (sigmoidal dose response, variable slope) using Prism software from GraphPad). Inhibition of Proliferation: CyQuant PC-3 Description: […]
A word on the IC50: it is the midpoint of a concentration-inhibition curve. The compound `CN(C)C(=O)Nc1nc2c(s1)-c1c(c(-c3ccc(N)nc3)nn1C1CCN(C3CC3)CC1)CCC2` [Example B-49, 3-[3-(6-Amino-pyridin-3-yl)-1-(1-cyclopropyl-piperidin-4-yl)-1,4,5,6-tetrahydro-9-thia-1,2,7-triaza-cyclopenta[e]azulen-8-yl]-1,1-dimethyl-urea] came in with an IC50 of 0.041 µM.

`CC(=O)Nc1nc2c(s1)-c1c(c(-c3c[nH]cn3)nn1-c1ccc(C3(N(C)C)CC3)cc1)CCC2` [Example B-115]: the IC50 worked out at 0.002 µM.

Turning to `COCC(=O)Nc1nc2c(s1)-c1c(c(-c3ccc(N)nc3)nn1-c1ccccc1C)CCC2` [Example B-104, N-[3-(6-Amino-pyridin-3-yl)-1-o-tolyl-1,4,5,6-tetrahydro-9-thia-1,2,7-triaza-cyclopenta[e]azulen-8-yl]-2-methoxy-acetamide], the half-maximal inhibitory concentration (IC50) worked out at 0.072 µM.

As for `CNC(=O)c1nn(C(C)C)c2c1CCCc1nc(NC(C)=O)sc1-2` [Example E-01], half-maximal inhibition (IC50) required 5.18 µM.

Turning to `CCNc1ccc(-c2nn(-c3ccccc3C)c3c2CCCc2nc(N)sc2-3)cn1` [Example C-03], 3.34 µM corresponded to half-maximal inhibition (IC50). This IC50 is about 1.6-fold lower than that of the compound before.

With `CNC(=O)Nc1nc2c(s1)-c1c(c(-c3ccc(NC)nc3)nn1C(C)C)CCC2` [Example B-144, 1-[1-Isopropyl-3-(6-methylamino-pyridin-3-yl)-1,4,5,6-tetrahydro-9-thia-1,2,7-triaza-cyclopent[e]azulen-8-yl]-3-methyl-urea], the IC50 came to 0.113 µM.

On to `CC(=O)Nc1nc2c(s1)-c1c(c(C(=O)N(C)CCO)nn1C(C)C)CCC2` [Example E-05], for which the IC50 is ≥ 20 µM.

`CC(=O)Nc1nc2c(s1)-c1c(c(C(=O)N(C)C)nn1C(C)C)CCC2` [Example E-02]: the IC50 stood at 16 µM.

Consider `Cc1ccc(-c2nn(-c3ccccc3C)c3c2CCCc2nc(NC(N)=O)sc2-3)cn1` [Example D-04], for which half-maximal inhibition (IC50) was put at 0.402 µM.

Consider `CC(=O)Nc1nc2c(s1)-c1c(c(C(=O)NCCO)nn1C(C)C)CCC2` [Example E-04], for which the IC50 stood at 4.89 µM. Compared with the last compound, the IC50 is about 12-fold higher.

For the compound `Cn1ncc2c1-c1sc(-c3cccnc3)nc1CCC2` [Example G-02], the IC50 is ≥ 20 µM.

As for `CCNc1ccc(-c2nn(-c3ccncc3C)c3c2CCCc2nc(N)sc2-3)cn1` [Example C-07], the IC50 came out at 2.19 µM.

In turn, `COCCNC(=O)Nc1nc2c(s1)-c1c(c(-c3ccc(C)nc3)nn1-c1ccccc1C)CCC2` [Example D-06] displayed an IC50 of 1.6 µM.

Turning to `CC(=O)Nc1nc2c(s1)-c1c(c(C(=O)Nc3cc[nH]n3)nn1C(C)C)CCC2` [Example E-10], half-maximal inhibition (IC50) required 1.58 µM.

`COC(=O)CCNC(=O)c1nn(C(C)C)c2c1CCCc1nc(NC(C)=O)sc1-2` [Example E-11] returned an IC50 of 6.26 µM.

The compound `CNc1ccc(-c2nn(CCN3CCOCC3)c3c2CCCc2nc(NC(=O)N(C)C)sc2-3)cn1` [Example B-98] displayed an IC50 of 0.737 µM.

Compound `COCC(=O)Nc1nc2c(s1)-c1c(c(-c3ccc(C)nc3)nn1-c1ccccc1C)CCC2` [Example E-13] gave an IC50 of 0.524 µM. The IC50 values of the last two compounds are within 1.5-fold of each other.

For the compound `CCNc1ccc(-c2nn(C(C)COC)c3c2CCCc2nc(NC(C)=O)sc2-3)cn1` (centres unmarked) [Example B-126], the IC50 was found to be 0.084 µM.

With `CCNc1ccc(-c2nn(CCN3CCOCC3)c3c2CCCc2nc(NC(C)=O)sc2-3)cn1` [Example B-124], the IC50 worked out at 0.994 µM.

On to `CC(=O)Nc1nc2c(s1)-c1c(c(-c3ccc(C)nc3)nn1-c1cccnc1)CCC2` [Example B-95], for which the half-maximal inhibitory concentration (IC50) came to 0.074 µM.

With `CCOC(=O)CCCNC(=O)c1nn(C(C)C)c2c1CCCc1nc(NC(C)=O)sc1-2` [Example E-12], half-maximal inhibition (IC50) was put at 5.41 µM.

On to `CNc1ccc(-c2nn(-c3cccnc3)c3c2CCCc2nc(NC(C)=O)sc2-3)cn1` [Example B-84], for which the IC50 stood at 0.05 µM. This IC50 is about 110-fold lower than that of the compound before.

With `CC(=O)Nc1nc2c(s1)-c1c(c(-c3c[nH]c(C)n3)nn1CCN(C)C)CCC2` [Example B-119], the IC50 came to 1.88 µM.

As for `COCCN(C)C(=O)c1nn(C(C)C)c2c1CCCc1nc(NC(C)=O)sc1-2` [Example E-08], the IC50 is ≥ 20 µM.

The next test deals with PC-3 cells. Description: Inhibition of proliferation: CyQuant PC-3. The test is classed as cell-based. To be noted: 72 h; PC-3 human prostate carcinoma cells, incubated with compounds for 3 days, CyQuant NF DNA dye. The procedure:
• GFP-4E-BP1 substrate; Invitrogen order no. PV4759 • Lanthascreen Tb-anti-p4E-BP1 (pThr46) Antibody Kit; Invitrogen order no. PV4758 • FRAP1 (mTOR) kinase; Invitrogen order no. […] Preparation of Reagents: Note: Thaw and keep mTOR, the substrate, ATP, and the antibody on ice prior to making working dilutions. Working dilutions of these components can be kept at room temperature for short periods of time the day of use. 1. Add 2 ml of 5× Assay Buffer to 8 ml water to prepare 10 ml of 1× Assay Buffer. Note: The concentration of 1× Assay Buffer is 50 mM HEPES pH 7.5, 0.01% Polysorbate 20, 1 mM EGTA, and 10 mM MnCl2. 2. Prepare Antibody/EDTA Solution by first adding 2.75 n1 of Tb-anti p4E-BP1 Antibody to 2397 n1 of LanthaScreen™ TR-FRET Dilution Buffer. Then, add 100 n1 of 0.5 M EDTA. 3. Prepare 4× Substrate/Enzyme Solution by first adding 72 n1 of GFP-4E-BP1 (22 nM) to 926 n1 of 1× Assay Buffer. Then, add 1.6 n1 of mTOR (0.45 mg/mL). 4. Prepare ATP Solution by adding 3.2 n1 of 10 mM ATP to 1997 n1 of 1× Assay Buffer. Serial Dilution of Inhibitors (16 Point Curve): Note: It is recommended that inhibitors be serially diluted in DMSO, then diluted to a 4× working concentration with 1× Assay Buffer. The below procedure describes dilution of compounds in a 96-well format prior to transfer to a 384-well format for kinase assays. This procedure calls for dilution of the compounds in 2 adjacent columns of a 96-well plate, which upon transfer to a single column of a 384-well plate with an 8-channel pipette will align the samples in order of concentration. 1. Dispense 40 n1 of DMSO to two adjacent columns of a 96 well plate per compound (e.g. columns 1 and 2). 2. Add 10 n1 of inhibitor stock (10 mM) to the first well of the first column (A1) and mix. 3. Remove 10 n1 from A1 and transfer to the adjacent well in the next column (B1) and mix. 4. Remove 10 n1 from B1 and transfer to the next well in the first column (B2) and mix. 5. Repeat this dilution pattern through well H1 and leave the last well (H2) as DMSO only. 6. Remove 4 n1 of diluted compounds and add to 96 n1 of 1× Assay Buffer in a 96-well plate making 4× compound dilutions. Kinase Reaction: 1. Add 2.5 μl of 4× compound dilutions from the first column of the 96-well plate to every other well of column 1 of a 384-well plate with an 8-channel pipette. Repeat for columns 2 and 3. 2. Add 2.5 n1 of 4× compound dilutions from the second column of the 96-well plate to the empty wells of column 1 of the 384-well plate with an 8-channel pipette. Repeat for columns 2 and 3. Note: This procedure aligns the compound dilutions in order of concentration. 3. Add 2.5 n1 of 4× Enzyme/Substrate Solution to all columns 1-6. 4. Preincubate for 30 min. at RT (shaker). 5. Add 5 n1 of ATP Solution to all wells to start reactions. 6. Shake the assay plate on a plate shaker for 30 seconds. 7. Incubate the assay plate for one hour at room temperature (20-25° C.). Stop Step and Fluorescence Detection: 1. Add 10 n1 of Antibody/EDTA Solution to each well in columns 1-9. 2. Shake the assay plate on a plate shaker for 30 seconds. 3. Incubate the assay plate for one hour at room temperature (20-25° C.). 4. Measure the GFP (FRET) and terbium (reference) emission signals on a fluorescence plate reader (e.g. Perkin Elmer Envision). Data Analysis: 1. Calculate the emission ratio for each sample by dividing the GFP (FRET) signal by the terbium (reference) signal. 2. Plot the concentration of each compound versus the emission ratio. Determine the concentration of compound required to reach 50% of the maximum signal (IC50). Determination of IC50 values can be obtained by curve fitting (sigmoidal dose response, variable slope) using Prism software from GraphPad). Inhibition of Proliferation: CyQuant PC-3 Description:
The CyQuant NF assay is based on measurement of cellular DNA content via fluorescent dye binding. Because cellular DNA content is highly regulated, it is closely proportional to cell number. […]
By EC50 is commonly meant the concentration giving half of the maximal effect. Regarding `CN(C)C(=O)Nc1nc2c(s1)-c1c(c(-c3ccc(N)nc3)nn1C1CCN(C3CC3)CC1)CCC2` [Example B-49, 3-[3-(6-Amino-pyridin-3-yl)-1-(1-cyclopropyl-piperidin-4-yl)-1,4,5,6-tetrahydro-9-thia-1,2,7-triaza-cyclopenta[e]azulen-8-yl]-1,1-dimethyl-urea], the EC50 is 0.156 µM.

Regarding `CC(=O)Nc1nc2c(s1)-c1c(c(-c3c[nH]cn3)nn1-c1ccc(C3(N(C)C)CC3)cc1)CCC2` [Example B-115], the EC50 is 0.016 µM.

The record behind these values is patent US8288379B2, “Thia-triaza-cyclopentazulenes” (Boehringer Ingelheim International GmbH, priority 2009, dated 2012).
